Assay results published in patent US20190292577A1, “COMPOSITIONS AND METHOD FOR THE TREATMENT OF ACNE” (ProdermIQ, Inc., priority 2018, published 2019).

How the values were obtained:
P. acnes = test: Skin microbiome profiling, benzoyl peroxide versus no benzoyl peroxide; type: in vivo, Propionibacterium acnes; settings: benzoyl peroxide applied versus no benzoyl peroxide, FIG. 3
Source text: (§1) Described herein are findings of a study of individuals comprising preadolescent females with acne, and changes in the microbiomes of the individuals with the use of benzoyl peroxide wash. Flora was taken from different areas of the faces of the individuals and studied for sensitivity to benzoyl peroxide. Inclusion criteria of the study for which results are provided herein include: • 1. Minimum of 6 acne lesions present. • 2. No prior use of prescription acne product. • 3. No prior use of over-the-counter benzoyl peroxide anti-acne agent. • 4. Ages: 7-12 • 5. Sex: Female Exclusion criteria of the study for which results are provided herein include: • 1. Significant active skin conditions on the face other than acne vulgaris (may include atopic dermatitis, psoriasis, or others). • 2. Use of oral or parenteral antibiotics within 3 months prior to the study. Sites from which samples were taken along with abbreviations for each include: • RA or RAL: Retroauricular Behind Ear • CH or CHN: Chin • CK or CKN: Cheek • FH or FHN: Forehead • AN or ANN: Ala Nasal [Outside of Nose] • CO or CON: Comedone In some embodiments, the skin microbiome of an individual subject is evaluated. Individual microbiomes vary greatly across subjects and regions of the skin. […] Samples were taken from locations on the heads of the individuals including behind the ear, chin, cheek, forehead, and outside the nose. […]

S. mitis = test: as above; type: in vivo; settings: benzoyl peroxide applied versus no benzoyl peroxide, FIG. 3
Source text: as §1

skin microbiome = test: Site specific and overall effect of benzoyl peroxide on the skin microbiome; type: in vivo, human
Source text: as §1

C2 P. acnes strain = test: P. acnes strain profiling before and after benzoyl peroxide treatment; type: in vivo, Propionibacterium acnes; settings: after benzoyl peroxide treatment, FIG. 39
Method: A group of subjects with P. acnes populations were treated with benzoyl peroxide and divided into 3 cohorts based on the effectiveness of the treatment. Subjects in the “Decrease Cohort” experienced a decrease in P. acnes populations, subjects in the “Increase Cohort” experienced an increase in P. acnes populations, and the “Flat Cohort” experienced non-measureable variance in P. acnes populations. […] Shown is the mean proportion of P. acnes across “Increase”, “Decrease”, and “Flat” cohort. […] The Al P. acnes across is differentiated between “Increase” and “Decrease” cohort. […] The K4 & C3 P. acnes is differentiated between “Increase” and “Decrease” cohort. […] The F4 & D1 P. acnes is differentiated between “Increase” and “Decrease” cohort. […] […] The K4 and A2 P. acnes strains are more prevalent in “Decrease” cohort while the K1 strain is more prevalent in “Increase” cohort.

Question: Which “P. acnes levels within the microbiome” value (P. acnes) does the source give for O=C(OOC(=O)c1ccccc1)c1ccccc1 [benzoyl peroxide] here?
Answer: The value was “decreased”.

Question: What about the “S. mitis relative proportion in the microbiome” value (S. mitis) of the same molecule?
Answer: The value was “increased”.

Question: And the “Skin site impacted the most by benzoyl peroxide” value (skin microbiome; among all sites tested, from the site specific prediction models of Table 2)?
Answer: The value was “cheek gets impacted the most”.

Question: What about the “Impact on overall microbiome diversity” value (skin microbiome; benzoyl peroxide treatment) of the same molecule?
Answer: The value was “does not impact the overall microbiome diversity”.

Question: What about the “Prevalence of the C2 P. acnes strain after treatment” value (C2 P. acnes strain) of the same molecule?
Answer: Its value is “becomes more prevalent”.
